Measured values: patent US10226493B2, “Coriolus versicolor extracts, methods of preparation and uses thereof” (priority 2010, dated 2019)

Tested on: herpes simplex virus (HSV)
Assay: HSV infection in mice, disease severity by hind-limb paralysis score
Format: in vivo
Settings: male BALB/c mice, ip once a day; MPUB-EtOH 250 mg/kg, acyclovir 10 mg/kg; versus DMSO-treated controls; FIG. 10
Protocol: To investigate the antiviral effects of C. versicolor extract in vivo, 3-week-old male BALB/c mice (15 mice per group) were administrated intraperitoneally (ip) with dimethyl sulfoxide (DMSO) (solvent for MPUB-EtOH) or MPUB-EtOH (250 mg/kg) once a day at 24 hr intervals for […].
Briefly, the mice were infected with inoculation of HSV ip at 1×10^5 TCID50/ml at day 0. DMSO, MPUB-EtOH or acyclovir (10 mg/kg) were administrated ip once a day at 24 hr intervals for 5 days starting 1 hr after infection. The mice were inspected daily and the disease severity was measured by hind-limb(s) paralysis based on the following scoring system: 0, no paralysis; 1, obvious difficulty in movement of hind limbs; 2, one hind limb incomplete paralysis; 3, one hind limb complete paralysis; 4, both hind limbs incomplete paralysis; 5, both hind limbs complete paralysis.

Nc1nc2c(ncn2COCCO)c(=O)[nH]1 [acyclovir]
severity of HSV infection (hind-limb paralysis score 0-5): comparable
